According to US20220339204A1, “METHOD AND COMPOSITION FOR AM[…] SEEKING BEHAVIOR” (priority 2018, published 2022):
Entries after “also recorded” stand apart in the source; their conditions may differ.

Test system: Sprague-Dawley rats (preference for drug-paired white chamber)
Assay: Conditioned Place Preference (CPP) conditioning and addiction with amphetamine, exploration on day 4 of withdrawal
Format: in vivo, male Sprague-Dawley rats
From the text: A three (3) chambered CPP apparatus, measuring 75 cm×30 cm×25 cm, was employed. The single black, white and grey chambers could each be isolated from the other by a sliding door on either side of the central grey chamber. […] The floor of the white chamber was covered with shiny transparent Perspex; while the floor of the black chamber was covered with wire mesh and sawdust, creating two contrasting chambers with distinct visual and tactile cues, representing a biased paradigm. The apparatus was thoroughly cleaned with a dilute solution of disinfectant upon completion of exploration by each rat.
Twenty four (24), three (3) month old male Sprague-Dawley rats, weighing approximately 250-350 g each, were obtained from the University of the West Indies Faculty of Medical Sciences Animal House following ethical approval of the protocol by the FMS/UHWI/UWI Ethics Committee, on the Mona Campus of the University of the West Indies. Animals were housed in pairs, in a normal twelve (12) hour light: dark cycle and fed food and water ad libitum.
Phase 1: Pre-conditioning, selection and first group assignments: Animals were selected for inclusion in the experiment via pre-conditioning. They were allowed an initial twenty (20) minute exploration of the CPP apparatus, and scores of chamber entries and time counted from a video recording. Animals displaying ≥80% preference for the dark CPP chamber during pre-conditioning were selected and randomly assigned to one of two treatment groups, AMP or SAL, each containing twelve animals.
Phase 2: Conditioning: During the conditioning phase, rats assigned to the amphetamine treatment group (Group AMP) received 1 ml of amphetamine hydrochloride (sigma) dissolved in 0.9% saline, providing 5 mg/kg intraperitoneally (i.p.). Rats in Group SAL were given 1 ml of physiological saline intraperitoneally.
Conditioning consisted of 8 days of daily, group-assigned intraperitoneal injection and then immediate, individual confinement to the white, ‘aversive’ chamber for thirty (30) minutes. […]
Phase 3: Amphetamine addiction and drug withdrawal: On day 9, the addiction phase ensued, with a six (6) day period of exposure to a daily increasing amphetamine dose for the drug treated (Group AMP) animals. […] During this period, the number of entries made into each chamber and the time spent in each chamber were recorded for all rats via scores from video recordings of exploration.
All the resulting data were analyzed, using the SPSS 19 software. The mean percent time and entries into the white CPP chamber by each animal were scored from video recordings. […]

[1] = Groups AMP-S and AMP-N, amphetamine 5-7 mg/kg i.p., t-test, p<0.001, hydrochloride

For `CC(N)Cc1ccccc1.Cl` (stereo not shown) [Amphetamine, amphetamine hydrochloride], which “percent time in the drug-paired white chamber during withdrawal versus saline treated groups” value (AMP-S and AMP-N combined n=12 versus SAL-S and SAL-N, p<0.01) is on record?
The value was “significantly increased”.

What about the “percent entries into the drug-paired white chamber during withdrawal versus saline treated groups” value (AMP-S and AMP-N versus SAL-S and SAL-N, p<0.01) of the same compound?
Its value is “significantly higher”.

What about the “percent entries into the drug-paired white chamber during withdrawal versus pre-conditioning” value [1] of the same compound?
The value was “significantly more entries; also recorded: significantly increased”.

And the “percent time in the drug-paired white chamber during withdrawal versus pre-conditioning” value [1]?
The value was “significantly more time; also recorded: significantly increased”.
